Results from paper PMC6906394, “Radiomodifying action, Pharmacokinetic and Biodistribution of Ethyl 3, 4, 5-trihydroxybenzoate-Implication in development of radiomitigator” (Scientific Reports, 2019).
Where two headings read alike, the source gives them in different places.

What was measured:
[1] = Plasma pharmacokinetics of GAE after single oral administration (HPLC, non-compartmental); assay type: in vivo, mice; settings: 200 mg/kg b.wt oral; for Cmax / AUC(0-t) / Tmax / half-life / AUC: 200 mg/kg; for Kel: in 1/min; for AUC: read-out: AUC0-α (converted)
Method: The developed method was successfully employed to determine GAE concentration in mouse plasma and tissue samples after single oral administration of GAE at a single dose (200 mg/kg body weight) in GAE and Radiation + GAE (R + GAE) treated group. […] Pharmacokinetic parameter analysis is presented in (Table 2, Table 3).
Black C57BL/6 male mice weighing 28–30 g were maintained at the Institutional Animal Experimental Facility. Animals were fed according to standard chow diet having free access to food and water ad libitum. The environmental condition was maintained at room temperature (22 ± 2 °C), relative humidity (45–60%) and 12 h dark/light cycle controlled facility. In this study, mice were randomly assigned to four different groups (n = 21) i.e untreated control (UC), GAE-treated (GAE), Radiation + GAE (R + GAE), Radiation group (R). Mice fasted overnight with free access to water before being dosed. Isolated GAE from leaves was dissolved with distilled water and ethanol in (7:3 v/v) and administered orally at a dose of 200 mg/kg body weight to GAE-treated and R + GAE treated groups only. The experiment was carried out in accordance to regulation and guideline of the, Committee for the purpose of control and supervision of Experiments on animals (CPCSEA), and study was approved by Institutional Animal Experimental Committee (IAEC), Institute of Nuclear Medicine & Allied Science, Delhi, India.
Group I untreated control (UC), Group II GAE-treated (GAE), Group III Radiation + GAE (R + GAE) and Group IV Radiation (R) exposed. The GAE was administered orally 15 min post irradiation. The whole-body radiation (5 Gy) was carried out using Bhabahtron II, Telecobalt machine, Panacea medical technology, Bangalore. The mice exposed at a dose rate of 0.961 Gy/min at field 35 × 35 cm^2 and the distance maintained from the source was 80 cm.
Blood and tissues samples of mice were collected at 15 min, 30 min, 1 h, 2 h, 4 h, 8 h and 24 h after GAE administration (3mice per time). Blood was obtained from retro orbital plexus of mice and collected in heparinized eppendorf tubes, followed by centrifugation at 2500 g for 15 min. The resulting plasma layer was separated and stored in tubes at −20 °C for further analysis. Tissue samples (brain, heart, liver, kidney, and spleen) were weighed and put into the normal saline solution to remove the blood by blotting on filter paper and were minced and homogenized with physiological saline solution (1:2 w/v) thoroughly in an ice bath. The homogenates were stored at −80 °C until the analysis.
Aliquot of plasma sample (100 µL) dispensed in standing vial deproteinized with ACN (200 µL) containing the IS (100 ng/mL) and centrifuged at 2500 g for 15 min at 4 °C. The supernatant was collected transferred to a clean glass tube, reconstituted with 200 µL mobile phase vortexed mixed for 2 min and centrifuged at 2500 g for 5 min. Following this, a 20 µL aliquot of supernatant was injected into the HPLC system for analysis.
GAE was separated on the high-performance liquid chromatography (HPLC), SPD-10A consisting of binary HPLC pump, ultraviolet detector, and a Rheodyne manual injector equipped with a 20 µl loop (Shimadzu, Japan). Separation was achieved on Kinetex Biphenyl RP 100 Å column (2.6 µm, 150 × 4.6 mm) (Phenomenex, Torrance) installed with phenyl cartridges (Phenomenex, Torrance). The system was controlled using class VP software (Shimadzu, Japan). The chromatographic separation of GAE was in approximately within 10 min, at room temperature by using the isocratic mobile phase mixture of ACN and 1%OPA (30:70, v/v) with pH maintained at 3.3. 20 µL of the samples were injected at a flow rate of 0.5 mL/min and the wavelength 270 nm was used for detection. […]

[2] = Stability of GAE in mice plasma and liver homogenate (QC samples); assay type: in vitro ADME; settings: for Stability % Long term: 2 week of storage at −20 °C; for freeze-thaw stability (fraction remaining) at 50 ng/mL / freeze-thaw stability (fraction remaining) at 250 ng/mL / freeze-thaw stability (fraction remaining) at 500 ng/mL: mouse, three consecutive freeze thaw cycles (−20 °C to room temperature)
Method: The recovery of GAE at three concentration was 79.3, 89.6 and 99.2% in plasma. […] The analyte were also shown to be stable in the plasma at room temperature for atleast 8 h with a reduction of less than 12–15% (Table 1). Based on the result reliable, reproducible and robust method has been developed and validated.
Standard stock solutions of GAE at 1 mg/mL were prepared and dissolved in appropriate amounts of diluent stock, water, and methanol (8:2 v/v). GAE was adequately diluted with diluent stock to give an intermediate solution at 100 µg/mL for each analyte. GAE calibration standards were at concentration of 5, 10, 20, 30, 40, 50, 100, 250, 500 ng/mL. Internal standard propyl gallate (PG) were prepared to spiked aliquots of blank mouse plasma (200 µL). […] combined spiking solution at a final concentration of 5, 10, 20, 40, 50, 100, 250, 500 and 1000 ng/mL were prepared and used to spike aliquots of blank tissue homogenates of Liver, kidney, heart, brain, and spleen (400 µL). The entire sample was stored at 4 °C. Quality control samples were prepared independently in the same biological matrices (plasma and tissue homogenate of liver) stored at −20 °C until use with each analytical run. Intra-day and inter-day precision were assessed by using six replicate QC samples at three levels of GAE included in each run to determine the accuracy and precision. […] The inter-day accuracy and precision were assessed by analyzing three batches on different days. The recoveries of GAE from plasma and tissue (liver) homogenate samples were done at three QC levels. The recovery of the analyte was calculated by comparing the analyte peaks of extracted QC samples against the equivalent aqueous solution.
The QC samples were kept at room temperature for 6 h and a freeze-thaw cycle (−80 °C) was repeated for three times. […] For all storage conditions, replication of three concentrations was analyzed after the operation and the experimental result was obtained through a chromatographic area and compared with the nominal values. On the basis of previous studies reported on pharmacokinetic and biodistribution[22],[23], we standardized and validated our study to further investigate the radiomodifying action of GAE.

[3] = R + GAE group (60Co-γ 5 Gy, GAE 15 min post irradiation)
[4] = male, C57BL/6, mouse, po, GAE treated group
[5] = male, C57BL/6, mouse, po, R + GAE group (60Co-γ 5 Gy, GAE 15 min post irradiation)

Clearance ([1]; GAE treated group): 0.017 ± 0.0005 mL/min | Cmax ([1]; GAE treated group): 4.39085 ± 0.2852 µg/mL | Kel ([1]; GAE treated group): 0.026 ± 0.003 | Clearance [1, 3]: 0.07 ± 0.01 mL/min | Kel [1, 3]: 0.025 ± 0.02 | AUC(0-t) [1, 4]: 2.92 µg·h/mL | Tmax [1, 4]: ~15 min | half-life [1, 4]: 26.5 ± 3.2 min | AUC [1, 4]: 2.93 µg·h/mL | Cmax ([1]; male, C57BL/6, mouse, po, GAE treated group, read-out: Cmax): 4.39 ± 0.285 µg/mL | AUC(0-t) [1, 5]: 1.07 µg·h/mL | Tmax [1, 5]: ~15 min | half-life [1, 5]: 22.4 ± 3.6 min | AUC [1, 5]: 1.07 µg·h/mL | Cmax ([1]; male, C57BL/6, mouse, po, R + GAE group (60Co-γ 5 Gy, GAE 15 min post irradiation), read-out: Cmax): 3.39 ± 0.0781 µg/mL | reduction after freeze-thaw cycle ([2]; freeze-thaw cycle): less than 8% | Stability % Long term ([2]; liver, 50 ng/mL): 62.6 ± 24.5% | Stability % Short term ([2]; liver, 50 ng/mL, room temperature for 24 h): 66.9 ± 22.18% | Stability % Long term ([2]; liver, 250 ng/mL): 79.26 ± 6.06% | Stability % Short term ([2]; liver, 250 ng/mL, room temperature for 24 h): 86.8 ± 1.7% | Stability % Long term ([2]; liver, 500 ng/mL): 95.13 ± 7.6% | Stability % Short term ([2]; liver, 500 ng/mL, room temperature for 24 h): 99.9 ± 0.47% | freeze-thaw stability (fraction remaining) at 50 ng/mL ([2]; liver homogenate, liver, 50 ng/mL): 0.648 ± 0.049 | freeze-thaw stability (fraction remaining) at 250 ng/mL ([2]; liver homogenate, liver, 250 ng/mL): 0.842 ± 0.025 | freeze-thaw stability (fraction remaining) at 500 ng/mL ([2]; liver homogenate, liver, 500 ng/mL): 0.978 ± 0.049 | freeze-thaw stability (fraction remaining) at 50 ng/mL ([2]; plasma, 50 ng/mL): 0.79 ± 0.0225 | freeze-thaw stability (fraction remaining) at 250 ng/mL ([2]; plasma, 250 ng/mL): 0.901 ± 0.0093 | freeze-thaw stability (fraction remaining) at 500 ng/mL ([2]; plasma, 500 ng/mL): 0.9342 ± 0.0037 | Stability % Long term ([2]; plasma, 50 ng/mL): 70.32 ± 1.37% | Stability % Short term ([2]; plasma, 50 ng/mL, room temperature for 24 h): 79.35 ± 1.37% | Stability % Long term ([2]; plasma, 250 ng/mL): 87.55 ± 0.635% | Stability % Short term ([2]; plasma, 250 ng/mL, room temperature for 24 h): 89.67 ± 1.58% | Stability % Long term ([2]; plasma, 500 ng/mL): 92.01 ± 0.179% | Stability % Short term ([2]; plasma, 500 ng/mL, room temperature for 24 h): 99.25 ± 0.120% | reduction in plasma at room temperature ([2]; plasma, room temperature for at least 8 h): 12–15% | stability at room temperature ([2]; room temperature for 24 h, plasma and tissue samples): stable | stability at −20 °C ([2]; −20 °C for one month): stable
Structure (SMILES): CCOC(=O)c1cc(O)c(O)c(O)c1 [GAE, Ethyl 3,4,5-trihydroxybenzoate]
